{"source": "patent US20190151634A1", "about": "“TREATMENT OF EXCESSIVE MENSTRUAL BLOOD LOSS BY FEMININE SANITARY PRODUCTS MEDICATED WITH HEMOSTATIC AGENT” (ARSTAT, INC., priority 2011, published 2019)", "origin": "cited, not measured here", "key": {"[1]": {"conditions": "oral, 6 g/day (EMEA review)"}, "[2]": {"conditions": "mouthwash, compared to placebo"}, "[3]": {"conditions": "locally administered, without detectable plasma drug levels"}, "[4]": {"conditions": "after administration of an oral tablet"}}, "data": [{"molecule": "NC[C@H]1CC[C@H](C(=O)O)CC1", "note": "[tranexamic acid]", "values": [{"measurement": "risk of gastrointestinal adverse events", "setting": "[1]", "value": "increased"}, {"measurement": "incidence of postoperative bleeding complications", "setting": "[2]", "value": "reduce the incidence of postoperative bleeding complications"}, {"measurement": "plasma concentrations", "setting": "after a mouth rinse", "value": "below 2 mcg/mL"}, {"measurement": "saliva concentrations, maximum level", "setting": "after a mouth rinse", "value": "above 200 mcg/mL"}, {"measurement": "time saliva concentration remained at a therapeutic level", "setting": "after a mouth rinse", "value": "more than two hours"}, {"measurement": "drug in saliva samples", "setting": "[4]", "value": "not detected"}, {"measurement": "mean drug plasma concentrations", "setting": "[4]", "value": 7000, "unit": "ng/mL"}]}, {"molecule": "aprotinin", "values": [{"measurement": "postoperative blood loss", "setting": "[3]", "value": "Reduction of the postoperative blood loss"}]}]}
